The target of data set [1] is Multidrug resistance protein 1a (Rattus norvegicus) (UniProt Q6PSM0). The data set can be described thus: (§1) TP_TRANSPORTER: Branched DNA assay in vivo SD rat, liver. In kind it is functional, organism-based. Particulars: Sprague-Dawley.
Data set [2] addresses T1, ATP-dependent translocase ABCB1 (Rattus norvegicus, UniProt P43245). The data set can be described thus: TP_TRANSPORTER: Branched DNA assay in vivo SD rat, kidney. Type of data set: functional, organism-based, Sprague-Dawley.
Data set [3] concerns the target T1, ATP-dependent translocase ABCB1. Described as §1. Type of data set: functional, organism-based, Sprague-Dawley.

T1 sequence (P43245 whole entry): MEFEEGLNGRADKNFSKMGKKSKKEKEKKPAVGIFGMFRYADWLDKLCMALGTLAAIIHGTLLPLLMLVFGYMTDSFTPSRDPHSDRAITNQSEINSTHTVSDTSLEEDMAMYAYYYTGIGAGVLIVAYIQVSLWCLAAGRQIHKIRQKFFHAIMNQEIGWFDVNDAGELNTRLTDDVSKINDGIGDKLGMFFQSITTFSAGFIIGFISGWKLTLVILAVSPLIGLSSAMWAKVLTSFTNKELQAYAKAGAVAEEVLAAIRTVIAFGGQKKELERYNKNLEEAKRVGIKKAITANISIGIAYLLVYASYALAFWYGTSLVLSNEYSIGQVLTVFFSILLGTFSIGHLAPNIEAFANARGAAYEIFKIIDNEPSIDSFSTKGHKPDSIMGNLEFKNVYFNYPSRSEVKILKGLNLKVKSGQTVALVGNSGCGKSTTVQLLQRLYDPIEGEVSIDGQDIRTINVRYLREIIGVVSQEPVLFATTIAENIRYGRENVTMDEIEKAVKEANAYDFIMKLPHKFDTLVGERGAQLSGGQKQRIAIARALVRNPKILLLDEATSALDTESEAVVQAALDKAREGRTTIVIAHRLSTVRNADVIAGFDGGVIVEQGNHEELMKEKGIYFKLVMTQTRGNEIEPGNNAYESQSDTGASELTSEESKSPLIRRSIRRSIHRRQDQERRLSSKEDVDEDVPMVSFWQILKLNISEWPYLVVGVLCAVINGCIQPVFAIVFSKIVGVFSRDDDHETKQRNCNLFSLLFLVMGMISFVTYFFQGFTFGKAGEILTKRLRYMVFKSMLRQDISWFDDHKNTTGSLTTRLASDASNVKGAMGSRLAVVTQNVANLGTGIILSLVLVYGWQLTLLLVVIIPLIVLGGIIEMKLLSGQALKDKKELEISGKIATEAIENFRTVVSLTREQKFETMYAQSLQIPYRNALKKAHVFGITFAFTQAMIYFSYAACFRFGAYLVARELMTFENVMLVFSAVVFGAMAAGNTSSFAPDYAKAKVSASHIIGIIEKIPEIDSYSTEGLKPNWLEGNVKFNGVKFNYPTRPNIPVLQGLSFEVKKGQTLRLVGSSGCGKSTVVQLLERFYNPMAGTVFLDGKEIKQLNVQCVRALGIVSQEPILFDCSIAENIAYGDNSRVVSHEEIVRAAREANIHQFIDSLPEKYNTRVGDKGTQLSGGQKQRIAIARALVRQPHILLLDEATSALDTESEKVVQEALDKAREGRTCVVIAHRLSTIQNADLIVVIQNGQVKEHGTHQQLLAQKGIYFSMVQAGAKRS
Multidrug resistance protein 1a (Rattus norvegicus), sequence (Q6PSM0 as listed by the source): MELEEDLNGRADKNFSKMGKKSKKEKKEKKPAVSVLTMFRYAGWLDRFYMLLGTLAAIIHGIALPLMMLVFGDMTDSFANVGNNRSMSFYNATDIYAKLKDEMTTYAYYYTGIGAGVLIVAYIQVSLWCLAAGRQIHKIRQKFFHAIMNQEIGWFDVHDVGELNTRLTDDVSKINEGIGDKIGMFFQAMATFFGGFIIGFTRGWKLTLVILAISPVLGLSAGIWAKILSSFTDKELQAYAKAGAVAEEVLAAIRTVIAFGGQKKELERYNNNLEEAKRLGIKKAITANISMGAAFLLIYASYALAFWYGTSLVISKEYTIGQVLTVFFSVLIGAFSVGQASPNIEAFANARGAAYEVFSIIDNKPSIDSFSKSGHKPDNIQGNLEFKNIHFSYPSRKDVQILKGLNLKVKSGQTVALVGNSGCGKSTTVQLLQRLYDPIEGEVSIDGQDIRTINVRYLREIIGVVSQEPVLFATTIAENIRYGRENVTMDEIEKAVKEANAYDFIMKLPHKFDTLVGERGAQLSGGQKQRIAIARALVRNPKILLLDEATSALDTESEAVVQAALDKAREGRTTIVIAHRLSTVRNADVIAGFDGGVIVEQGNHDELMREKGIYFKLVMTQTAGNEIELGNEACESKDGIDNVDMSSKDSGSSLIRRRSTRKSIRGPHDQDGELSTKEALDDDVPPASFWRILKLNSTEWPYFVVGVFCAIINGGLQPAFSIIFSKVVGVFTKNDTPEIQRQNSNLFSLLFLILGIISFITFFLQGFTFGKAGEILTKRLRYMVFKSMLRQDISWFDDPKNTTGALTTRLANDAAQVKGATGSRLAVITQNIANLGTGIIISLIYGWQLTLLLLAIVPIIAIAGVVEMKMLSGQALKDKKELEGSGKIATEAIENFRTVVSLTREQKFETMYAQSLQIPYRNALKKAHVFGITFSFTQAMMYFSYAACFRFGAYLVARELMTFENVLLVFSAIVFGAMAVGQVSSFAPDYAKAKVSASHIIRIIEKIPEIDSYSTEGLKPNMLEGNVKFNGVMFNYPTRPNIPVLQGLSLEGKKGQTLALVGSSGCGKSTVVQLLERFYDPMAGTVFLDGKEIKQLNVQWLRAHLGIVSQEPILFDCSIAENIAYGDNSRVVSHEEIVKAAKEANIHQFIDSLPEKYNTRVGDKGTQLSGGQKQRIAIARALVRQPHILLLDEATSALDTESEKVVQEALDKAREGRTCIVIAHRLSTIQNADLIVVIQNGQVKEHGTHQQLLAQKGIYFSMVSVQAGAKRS

Consider `Cc1c(-c2cnccn2)ssc1=S`, for which the Activity entry in data set [1] is “inducer [+]”.

Turning to `CN(N=O)C(=O)N[C@@H](C=O)[C@@H](O)[C@H](O)[C@H](O)CO` [STREPTOZOCIN], the Activity entry in data set [2] and in data set [3] was “inducer [+]” each time.

For `Clc1ccc(-c2cc(Cl)c(Cl)cc2Cl)c(Cl)c1` [POLYCHLORINATED BIPHENYL 99], the Activity entry in data set [3] was “inducer [+]”.

Take `C=CCSCC=C`: the Activity entry in data set [1] is “inducer [+]”.

For `OCc1c[nH]c2ccccc12` [INDOLE-3-CARBINOL], the Activity entry in data set [3] was “inducer [+]”.

Regarding `NNC(=O)c1ccncc1`, the Activity result in data set [1] is “inducer [+]”.

(Values after ChEMBL document CHEMBL2074225, “Tissue distribution and chemical induction of multiple drug resistance genes in rats” (Drug Metab Dispos, 2002).)
